From US12329158B2, “Large-scale methods of uniformly coating packaging surfaces with a volatile antimicrobial to preserve food freshness” (AGROFRESH INC., priority 2013, dated 2025)
≈ marks a conversion by molar mass, not a printed value. Read-outs that look alike come from different tables or passages of the source.

Tests used:
Format in all cases: cell-based
Botrytis cinerea [1] = assay: Volatile MIC assay (Example 10); conditions: 72 h, read-out: MIC (mg/L) BOTRCI
Experimental: (§1) 12-Well (6.5 mL volume per well) microtiter plates are used for the in vitro inhibition assay for volatile antimicrobial compounds. A 3-mL volume of full-strength Potato Dextrose Agar (PDA) is added to each well. After cooling, 1 μL of 1×10^5 per mL Botrytis cinerea and Penicillium expansum spore suspension is spot-pipetted to the center of the agar. Plates are inoculated immediately prior to volatile fungicide treatment. A Whatman #1 filter disk (Cat. No. 1001-0155) is placed, in duplicate, on the underside of a polyethylene PCR plate sealing film. […] The headspace around the inoculum is then sealed inside the well by the film with the adhering disk containing the fungicide by inverting the plates over the treated disks and sealing to prevent any of the chemical from flaking from the disk and falling onto the inoculated agar. After 3 days of storage at 23° C., the cultures are evaluated for percent growth relative to control based on measurement of fungal colony diameter.

Penicillium expansum [2] = assay: Volatile MIC assay (Example 10); conditions: 72 h, read-out: MIC (mg/L) PENIEX
Experimental: as §1

B. cinerea = assay: In vitro contact assay, amended agar (Example 24); conditions: Botrytis cinerea, 72 h, read-out: Contact MIC (mg/L) B. cinerea
Experimental: (§2) Contact assay: 6-well (16.5 mL volume per well) microtiter plates are used for an in vitro inhibition assay. […] A 7.5-mL volume of the amended media is added to each well of the microtiter plate. […] The plates are sealed with a clear film and incubated for 3 days at 23° C. After incubation, plates are evaluate for percent growth relative to acetone only control.

P. expansum = assay: In vitro contact assay, amended agar (Example 24); conditions: Penicillium expansum, 72 h, read-out: Contact MIC (mg/L) P. expansum
Experimental: as §2

Botrytis cinerea [3] = assay: In vitro volatile assay (Example 24); conditions: 72 h, headspace, 100% control, 3 days at 23 C, read-out: Volatile MIC (mg/L) B. cinerea
Experimental: (§3) Volatile assay: 12-well (6.5 mL volume per well) microtiter plates are used. A 3-mL volume of half strength PDA is added to each well. […] A Whatman #1 filter disk (Cat. No. 1001-0155) is placed, in duplicate, on the underside of a polyethylene PCR plate sealing film. […] The acetone is permitted to evaporate for 5 minutes. The headspace around the inoculum is then sealed inside the well by the film with the adhering disk containing the fungicide. Plates are inverted, placed over the treated disks, and sealed to prevent any of the chemical from flaking from the disk and falling onto the inoculated agar. […] Contact assay: 6-well (16.5 mL volume per well) microtiter plates are used for an in vitro inhibition assay. […] A 7.5-mL volume of the amended media is added to each well of the microtiter plate. […] The plates are sealed with a clear film and incubated for 3 days at 23° C. After incubation, plates are evaluate for percent growth relative to acetone only control.

Penicillium expansum [4] = assay: In vitro volatile assay (Example 24); conditions: 72 h, headspace, 100% control, 3 days at 23 C, read-out: Volatile MIC (mg/L) P. expansum
Experimental: as §3

Alternaria alternata = assay: Volatile MIC assay (Example 9); conditions: 72 h, headspace concentration, 3 days at 23 C, read-out: MIC (mg/L) ALTEAL
Experimental: (§4) A 3-mL volume of full-strength Potato Dextrose Agar (PDA) is added to each well. […] Plates are inoculated immediately prior to volatile fungicide treatment. A Whatman #1 filter disk (Cat. No. 1001-0155) is placed, in duplicate, on the underside of a polyethylene PCR plate sealing film. […] The acetone is permitted to evaporate for 5 minutes. The headspace around the inoculum is then sealed inside the well by the film with the adhering disk containing the fungicide by inverting the plates over the treated disks and sealing to prevent any of the chemical from flaking from the disk and falling onto the inoculated agar.

Botrytis cinerea [5] = assay: Volatile MIC assay (Example 9); conditions: 72 h, headspace concentration, 3 days at 23 C, read-out: MIC (mg/L) BOTRCI
Experimental: as §4

Monilinia fructicola = assay: Volatile MIC assay (Example 9); conditions: 72 h, headspace concentration, 3 days at 23 C, read-out: MIC (mg/L) MONIFC
Experimental: as §4

Penicillium expansum [6] = assay: Volatile MIC assay (Example 9); conditions: 72 h, headspace concentration, 3 days at 23 C, read-out: MIC (mg/L) PENIEX
Experimental: as §4

Botrytis cinerea [7] = assay: In vitro inhibition assay for volatile fungicide, 12-well plates (Example 7); conditions: volatile; 14 days at 4 C
Experimental: For testing activity against fungi pathogens, an in vitro inhibition assay for volatile antimicrobial compounds is developed using 12-Well (7 milliliter (mL) volume per well) microtiter plates. A 3-mL volume of full-strength Potato Dextrose Agar (PDA) is added to each well. After cooling, 1 microliter (μL) of 1×10^6 per mL Botrytis cinerea spore suspension is spot pipetted to the center of the agar. For the first experiment, inoculated plates are allowed to germinate for 5 days at 4° C. For the second experiment, plates are inoculated immediately prior to volatile fungicide treatment. Small Whatman #1 filter disks (Cat. No. 1001-0155) are placed, in duplicate, on the underside of a polyethylene PCR plate sealing film.
The acetone is permitted to evaporate for 5 minutes. The headspace around the Botrytis cinerea inoculum is then sealed inside the well by the film with the adhering disk containing the fungicide. Plates are inverted, placed over the treated disks and sealed to prevent any of the chemical from flaking from the disk and falling onto the inoculated agar. After 14 days of storage at 4° C., cultures are evaluated for percent growth relative to control. […]

[8] = volatile treatment, 3 days at 23 C
[9] = amended agar, 100% control, 3 days at 23 C

Work on `Nc1ccccc1OB1OCc2cc(F)ccc21` [Compound 116] yielded an MIC (Botrytis cinerea [1]; [8]) of 1.1 mg/L (≈ 4.53 µM) and an MIC (Penicillium expansum [2]; [8]) of 8.9 mg/L (≈ 36.6 µM).
Compound `O[B@@-]1([NH2+]Cc2ccccc2)OCc2ccccc21` [Compound 121] has an MIC (Botrytis cinerea [1]; [8]) of 4.5 mg/L (≈ 18.7 µM), an MIC (Penicillium expansum [2]; [8]) of 17.9 mg/L (≈ 74.2 µM) and an MIC (B. cinerea; [9]) of 10 mg/L (≈ 41.5 µM). For the same compound, the MIC (P. expansum; [9]) was 10 mg/L (≈ 41.5 µM), the MIC (Botrytis cinerea [3]) was 4.5 mg/L (≈ 18.7 µM) and the MIC (Penicillium expansum [4]) was 17.9 mg/L (≈ 74.2 µM).
Work on `C[Si](C)(C)OB1OCc2ccccc21` [Compound 122] yielded an MIC (Botrytis cinerea [1]) of 2.2 mg/L (≈ 10.7 µM).
Compound `OB1OCc2cc(Cl)ccc21` [Compound 124] has an MIC (Botrytis cinerea [1]; [8]) of 4.5 mg/L (≈ 26.7 µM), an MIC (Penicillium expansum [2]; [8]) of 8.9 mg/L (≈ 52.9 µM) and an MIC (B. cinerea; [9]) of 2 mg/L (≈ 11.9 µM). It also gave an MIC (P. expansum; [9]) of 2 mg/L (≈ 11.9 µM), an MIC (Botrytis cinerea [3]) of 4.5 mg/L (≈ 26.7 µM) and an MIC (Penicillium expansum [4]) of 8.9 mg/L (≈ 52.9 µM).
Work on `Fc1ccc2c(c1)COB2c1ccccc1` [Compound 127] yielded an MIC (Botrytis cinerea [1]; [8]) of 2.2 mg/L (≈ 10.4 µM) and an MIC (Penicillium expansum [2]; [8]) of 4.5 mg/L (≈ 21.2 µM).
Compound `C=CB1OCc2cc(F)ccc21` [Compound 129] has an MIC (Botrytis cinerea [1]; [8]) of 4.5 mg/L (≈ 27.8 µM) and an MIC (Penicillium expansum [2]; [8]) of 8.9 mg/L (≈ 54.9 µM).
With `N#C[B-]1(O)OCc2cc(F)ccc21.[K+]` (centres unmarked) [Compound 130] the MIC (Botrytis cinerea [1]) was 1.1 mg/L, the MIC (Penicillium expansum [2]) was 4.5 mg/L and the MIC (B. cinerea) was 2 mg/L. It also gave an MIC (P. expansum) of 0.4 mg/L.
In the case of `N#C[B-]1(O)OCc2cc(F)ccc21.[Na+]` (centres unmarked) [Compound 132], the MIC (B. cinerea; [9]) is reported as 2 mg/L, the MIC (P. expansum; [9]) is reported as 2 mg/L and the MIC (Botrytis cinerea [3]) is reported as 1.1 mg/L. For the same compound, the MIC (Penicillium expansum [4]) was 4.5 mg/L.
`Fc1ccc(B2OCc3cc(F)ccc32)cc1` [Compound 133] gave an MIC (Botrytis cinerea [1]; [8]) of 8.9 mg/L (≈ 38.7 µM) and an MIC (Penicillium expansum [2]; [8]) of 35.7 mg/L (≈ 155 µM).
`Fc1cccc(B2OCc3cc(F)ccc32)c1` [Compound 134] was tested, and the MIC (Botrytis cinerea [1]; [8]) was 17.9 mg/L (≈ 77.8 µM) and the MIC (Penicillium expansum [2]; [8]) was greater than 35.7 mg/L.
`COc1ccc(B2OCc3cc(F)ccc32)cc1` [Compound 135] showed an MIC (Botrytis cinerea [1]; [8]) of 17.9 mg/L (≈ 73.9 µM), an MIC (Penicillium expansum [2]; [8]) greater than 35.7 mg/L and an MIC (B. cinerea; [9]) of 2 mg/L (≈ 8.26 µM). For the same compound, the MIC (P. expansum; [9]) was 2 mg/L (≈ 8.26 µM), the MIC (Botrytis cinerea [3]) was 17.9 mg/L (≈ 73.9 µM) and the MIC (Penicillium expansum [4]) was greater than 35.7 mg/L.
`COc1cccc(B2OCc3cc(F)ccc32)c1` [Compound 136] gave an MIC (Botrytis cinerea [1]; [8]) of 8.9 mg/L (≈ 36.8 µM) and an MIC (Penicillium expansum [2]; [8]) greater than 35.7 mg/L.
`C=C(C)B1OCc2cc(F)ccc21` [Compound 137] showed an MIC (Botrytis cinerea [1]; [8]) of 0.3 mg/L (≈ 1.7 µM) and an MIC (Penicillium expansum [2]; [8]) of 1.1 mg/L (≈ 6.25 µM).
With `OB1OCc2ccc(F)cc21` [Compound 200] the MIC (Alternaria alternata) was 7.3 mg/L (≈ 48 µM), the MIC (Botrytis cinerea [5]) was 10.6 mg/L (≈ 69.8 µM) and the MIC (Monilinia fructicola) was 6.3 mg/L (≈ 41.5 µM). The MIC (Penicillium expansum [6]) was 68.3 mg/L (≈ 450 µM).
`OB1OCc2c(F)cccc21` [Compound 202] gave an MIC (Botrytis cinerea [1]; [8]) of 35.7 mg/L (≈ 235 µM) and an MIC (Penicillium expansum [2]; [8]) of 143 mg/L (≈ 941 µM).
Compound `OB1OCc2cccc(F)c21` [Compound 203] has an MIC (Botrytis cinerea [1]; [8]) of 8.9 mg/L (≈ 58.6 µM) and an MIC (Penicillium expansum [2]; [8]) of 143 mg/L (≈ 941 µM).
In the case of `OB1OCc2cc(F)c(F)cc21` [Compound 204], the MIC (Botrytis cinerea [1]; [8]) is reported as 8.9 mg/L (≈ 52.4 µM) and the MIC (Penicillium expansum [2]; [8]) is reported as greater than 35.7 mg/L.
For `OB1OCc2ccccc21` [Compound B2, 2-(hydroxymethyl)phenylboronic acid cyclic monoester], the “Rate giving 100% in vitro inhibition of Botrytis cinerea” value (Botrytis cinerea [7]) was 0.0078 mg/disk.
`Fc1ccc2c(c1)COB2OCCOB1OCc2cc(F)ccc21` [Compound B] was tested, and the MIC (B. cinerea; [9]) was 0.4 mg/L (≈ 1.21 µM), the MIC (P. expansum; [9]) was 2 mg/L (≈ 6.06 µM) and the MIC (Botrytis cinerea [3]) was 0.6 mg/L (≈ 1.82 µM). The MIC (Penicillium expansum [4]) was 8.9 mg/L (≈ 27 µM).
